Experimental data published in patent US12435092B2, “Substituted imidazo[1,2-A]quinazolines as inhibitors of PARG” (858 Therapeutics, Inc., priority 2022, dated 2025).

Each compound was assayed against T1, cellular PARG (Homo sapiens, UniProt Q86W56) (assay: Nuclear PAR accumulation assay (immunofluorescence high-content imaging)). Details: HeLa cells, 1 hour compound treatment then MMS 50 μg/mL for an additional hour.
T1 construct: endogenous in cells; host or cells: HeLa
T1 sequence (Q86W56 whole entry): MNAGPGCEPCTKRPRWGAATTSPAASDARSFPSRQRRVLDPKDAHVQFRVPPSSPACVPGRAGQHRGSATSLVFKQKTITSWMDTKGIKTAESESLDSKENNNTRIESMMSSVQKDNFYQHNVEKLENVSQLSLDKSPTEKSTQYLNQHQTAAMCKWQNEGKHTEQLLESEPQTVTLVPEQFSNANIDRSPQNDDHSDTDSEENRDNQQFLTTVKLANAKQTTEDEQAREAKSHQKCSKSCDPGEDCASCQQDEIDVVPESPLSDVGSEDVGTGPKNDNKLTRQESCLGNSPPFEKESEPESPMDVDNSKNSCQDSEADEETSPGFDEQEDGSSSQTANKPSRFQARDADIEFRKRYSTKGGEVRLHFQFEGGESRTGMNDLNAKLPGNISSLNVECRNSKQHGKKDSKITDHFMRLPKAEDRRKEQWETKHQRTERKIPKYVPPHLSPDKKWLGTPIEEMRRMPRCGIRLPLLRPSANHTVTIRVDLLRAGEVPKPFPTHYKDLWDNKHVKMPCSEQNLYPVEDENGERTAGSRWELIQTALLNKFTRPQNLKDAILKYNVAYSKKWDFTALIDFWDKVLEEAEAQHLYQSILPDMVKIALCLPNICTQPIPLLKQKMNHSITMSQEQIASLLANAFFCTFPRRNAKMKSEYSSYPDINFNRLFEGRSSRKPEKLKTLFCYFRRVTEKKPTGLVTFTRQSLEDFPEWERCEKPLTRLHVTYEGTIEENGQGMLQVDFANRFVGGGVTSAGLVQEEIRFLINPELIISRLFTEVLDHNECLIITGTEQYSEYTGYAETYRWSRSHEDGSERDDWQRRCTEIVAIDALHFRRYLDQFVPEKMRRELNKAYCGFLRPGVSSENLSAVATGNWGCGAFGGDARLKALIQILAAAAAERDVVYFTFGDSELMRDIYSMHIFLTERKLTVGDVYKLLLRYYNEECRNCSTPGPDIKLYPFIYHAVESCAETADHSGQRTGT
Format: cell-based
Description: Compound IC50 values for inhibition of cellular PARG were determined using an immunofluorescence high-content imaging assay for nuclear PAR accumulation. HeLa cells were plated at 15,000 cells/well in a 96-well plate the day before compound treatment and then treated with varying concentrations of test compound and incubated for 1 hour at 37° C.+5% CO2. Following test compound treatment, methylmethane sulfonate (MMS) was added to a final concentration of 50 μg/mL and the cells were incubated for an additional hour. Following treatment, the cells were fixed with ice cold 95% methanol and the plates sealed and placed at −20° C. for 15 minutes. The cells were then washed once with phosphate buffered saline (PBS) and permeabilized with 0.1% Triton-X 100 for 20 minutes at room temperature. The cells were again washed once with PBS and incubated with an anti-poly-ADP ribose (PAR) monoclonal antibody (Millipore Part #AM80 clone 10H) diluted 1:1,000 in 5% fetal bovine serum +0.1% Tween-20+PBS overnight at 4° C. The cells were then washed three times with PBS before incubation with a fluorescently conjugated goat anti-mouse antibody (Invitrogen A32723) diluted 1:500 in 5% FBS+0.1% Tween-20+PBS for 1 hour at room temperature. The cells were again washed three times with PBS and the nuclei labeled by incubating with 1 μg/mL DAPI (4′,6-diamidino-2-phenylindole). Nuclear PAR accumulation was evaluated using high-content fluorescence microscopy. Four fields for each well were acquired at 20× magnification resulting in at least 1,000 cells analyzed per well. Using high-content software (CellReporterXpress) the nuclei were detected and segmented using the DAPI channel and the fluorescence intensity of the PAR-Alexa 488 channel was quantified within the nuclei regions. Both the average intensity per nucleus and percent PAR positive cells were quantified. Percent PAR positive cells were identified by having greater anti-PAR labeling above the threshold set with vehicle DMSO treated control cells. Percent inhibition of PARG by test compounds was calculated by normalizing the data to the 0.1% DMSO and reference compound control values, which represent 0% and 100% inhibition of enzymatic activity, respectively. Concentration-response-curves and IC50 values were generated using four parameter logistic curve fit software.
For `Cc1cc(CN2C(=O)c3cc(S(=O)(=O)NC4(C)CC4)ccc3N3C2=NC[C@H]3C(C)C)on1` [Example 12, (R)-1-isopropyl-N-(1-methylcyclopropyl)-4-((3-methylisoxazol-5-yl)methyl)-5-oxo-1,2,4,5-tetrahydroimidazo[1,2-a]quinazoline-7-sulfonamide], the IC50 was 100 to 1000 nM. Compound `CC[C@H]1CN=C2N(Cc3c(C)noc3C)C(=O)c3cc(S(=O)(=O)NC4(C)CC4)ccc3N21` [Example 13, (S)-4-((3,5-dimethylisoxazol-4-yl)methyl)-1-ethyl-N-(1-methylcyclopropyl)-5-oxo-1,2,4,5-tetrahydroimidazo[1,2-a]quinazoline-7-sulfonamide] has an IC50 of 1000 to 10000 nM. With `CC[C@@H]1CN=C2N(Cc3c(C)noc3C)C(=O)c3cc(S(=O)(=O)NC4(C)CC4)ccc3N21` [Example 14, (R)-4-((3,5-dimethylisoxazol-4-yl)methyl)-1-ethyl-N-(1-methylcyclopropyl)-5-oxo-1,2,4,5-tetrahydroimidazo[1,2-a]quinazoline-7-sulfonamide] the IC50 was ≤ 100 nM. Compound `C#C[C@H]1CN=C2N(Cc3cnc(C)s3)C(=O)c3cc(S(=O)(=O)NC4(C)CC4)ccc3N21` [Example 15, (S)-1-ethynyl-N-(1-methylcyclopropyl)-4-((2-methylthiazol-5-yl)methyl)-5-oxo-1,2,4,5-tetrahydroimidazo[1,2-a]quinazoline-7-sulfonamide] has an IC50 of 100 to 1000 nM. `C#C[C@@H]1CN=C2N(Cc3cnc(C)s3)C(=O)c3cc(S(=O)(=O)NC4(C)CC4)ccc3N21` [Example 16, (R)-1-ethynyl-N-(1-methylcyclopropyl)-4-((2-methylthiazol-5-yl)methyl)-5-oxo-1,2,4,5-tetrahydroimidazo[1,2-a]quinazoline-7-sulfonamide] was tested, and the IC50 was ≤ 100 nM. `Cc1ncc(CN2C(=O)c3cc(S(=O)(=O)NC4(C)CC4)ccc3N3C2=NC[C@@H]3C2CC2)s1` [Example 17, (S)-1-cyclopropyl-N-(1-methylcyclopropyl)-4-((2-methylthiazol-5-yl)methyl)-5-oxo-1,2,4,5-tetrahydroimidazo[1,2-a]quinazoline-7-sulfonamide] was tested, and the IC50 was 100 to 1000 nM. In the case of `Cc1ncc(CN2C(=O)c3cc(S(=O)(=O)NC4(C)CC4)ccc3N3C2=NC[C@H]3C2CC2)s1` [Example 18, (R)-1-cyclopropyl-N-(1-methylcyclopropyl)-4-((2-methylthiazol-5-yl)methyl)-5-oxo-1,2,4,5-tetrahydroimidazo[1,2-a]quinazoline-7-sulfonamide], the IC50 is reported as ≤ 100 nM. For `Cc1ncc(CN2C(=O)c3cc(S(=O)(=O)NC4(C)CC4)ccc3N3C2=NC[C@@H]3C(C)C)s1` [Example 19, (S)-1-isopropyl-N-(1-methylcyclopropyl)-4-((2-methylthiazol-5-yl)methyl)-5-oxo-1,2,4,5-tetrahydroimidazo[1,2-a]quinazoline-7-sulfonamide], the IC50 was > 10000 nM. For `Cc1ncc(CN2C(=O)c3cc(S(=O)(=O)NC4(C)CC4)ccc3N3C2=NC[C@H]3C(C)C)s1` [Example 20, (R)-1-isopropyl-N-(1-methylcyclopropyl)-4-((2-methylthiazol-5-yl)methyl)-5-oxo-1,2,4,5-tetrahydroimidazo[1,2-a]quinazoline-7-sulfonamide], the IC50 was ≤ 100 nM. `Cc1cc(CN2C(=O)c3cc(S(=O)(=O)NC4(C)CC4)ccc3N3C2=NC[C@@H]3C2CC2)on1` [Example 21, (S)-1-cyclopropyl-N-(1-methylcyclopropyl)-4-((3-methylisoxazol-5-yl)methyl)-5-oxo-1,2,4,5-tetrahydroimidazo[1,2-a]quinazoline-7-sulfonamide] showed an IC50 of 100 to 1000 nM. In the case of `Cc1cc(CN2C(=O)c3cc(S(=O)(=O)NC4(C)CC4)ccc3N3C2=NC[C@H]3C2CC2)on1` [Example 22, (R)-1-cyclopropyl-N-(1-methylcyclopropyl)-4-((3-methylisoxazol-5-yl)methyl)-5-oxo-1,2,4,5-tetrahydroimidazo[1,2-a]quinazoline-7-sulfonamide], the IC50 is reported as ≤ 100 nM. With `CC[C@H]1CN=C2N(Cc3cc(C)no3)C(=O)c3cc(S(=O)(=O)NC4(C)CC4)ccc3N21` [Example 23, (S)-1-ethyl-N-(1-methylcyclopropyl)-4-((3-methylisoxazol-5-yl)methyl)-5-oxo-1,2,4,5-tetrahydroimidazo[1,2-a]quinazoline-7-sulfonamide] the IC50 was 1000 to 10000 nM. With `CC[C@@H]1CN=C2N(Cc3cc(C)no3)C(=O)c3cc(S(=O)(=O)NC4(C)CC4)ccc3N21` [Example 24, (R)-1-ethyl-N-(1-methylcyclopropyl)-4-((3-methylisoxazol-5-yl)methyl)-5-oxo-1,2,4,5-tetrahydroimidazo[1,2-a]quinazoline-7-sulfonamide] the IC50 was ≤ 100 nM. `CCN1C(=O)c2cc(S(=O)(=O)NC3(C)CC3)ccc2N2C1=NC[C@@H]2C1CC1` [Example 25, (S)-1-cyclopropyl-4-ethyl-N-(1-methylcyclopropyl)-5-oxo-1,2,4,5-tetrahydroimidazo[1,2-a]quinazoline-7-sulfonamide] was tested, and the IC50 was > 10000 nM. Compound `CCN1C(=O)c2cc(S(=O)(=O)NC3(C)CC3)ccc2N2C1=NC[C@H]2C1CC1` [Example 26, (R)-1-cyclopropyl-4-ethyl-N-(1-methylcyclopropyl)-5-oxo-1,2,4,5-tetrahydroimidazo[1,2-a]quinazoline-7-sulfonamide] has an IC50 of 100 to 1000 nM. For `C#C[C@H]1CN=C2N(CC)C(=O)c3cc(S(=O)(=O)NC4(C)CC4)ccc3N21` [Example 27, (S)-4-ethyl-1-ethynyl-N-(1-methylcyclopropyl)-5-oxo-1,2,4,5-tetrahydroimidazo[1,2-a]quinazoline-7-sulfonamide], the IC50 was 1000 to 10000 nM. `C#C[C@@H]1CN=C2N(CC)C(=O)c3cc(S(=O)(=O)NC4(C)CC4)ccc3N21` [Example 28, (R)-4-ethyl-1-ethynyl-N-(1-methylcyclopropyl)-5-oxo-1,2,4,5-tetrahydroimidazo[1,2-a]quinazoline-7-sulfonamide] was tested, and the IC50 was 100 to 1000 nM. `CC[C@H]1CN=C2N(Cc3cnc(C)s3)C(=O)c3cc(S(=O)(=O)NC4(C)CC4)ccc3N21` [Example 29, (S)-1-ethyl-N-(1-methylcyclopropyl)-4-((2-methylthiazol-5-yl)methyl)-5-oxo-1,2,4,5-tetrahydroimidazo[1,2-a]quinazoline-7-sulfonamide] gave an IC50 of 1000 to 10000 nM. For `CC[C@@H]1CN=C2N(Cc3cnc(C)s3)C(=O)c3cc(S(=O)(=O)NC4(C)CC4)ccc3N21` [Example 30, (R)-1-ethyl-N-(1-methylcyclopropyl)-4-((2-methylthiazol-5-yl)methyl)-5-oxo-1,2,4,5-tetrahydroimidazo[1,2-a]quinazoline-7-sulfonamide], the IC50 was ≤ 100 nM. In the case of `Cc1ncc(CN2C(=O)c3cc(S(=O)(=O)NC4(C)CC4)ccc3N3C2=NC[C@H]3C)s1` [Example 31, (R)-1-methyl-N-(1-methylcyclopropyl)-4-((2-methylthiazol-5-yl)methyl)-5-oxo-1,2,4,5-tetrahydroimidazo[1,2-a]quinazoline-7-sulfonamide], the IC50 is reported as ≤ 100 nM. With `Cc1cc(CN2C(=O)c3cc(S(=O)(=O)NC4(C)CC4)ccc3N3C2=NC[C@H]3C)on1` [Example 32, (R)-1-methyl-N-(1-methylcyclopropyl)-4-((3-methylisoxazol-5-yl)methyl)-5-oxo-1,2,4,5-tetrahydroimidazo[1,2-a]quinazoline-7-sulfonamide] the IC50 was ≤ 100 nM. In the case of `C#C[C@H]1CN=C2N(Cc3cnn(C)c3)C(=O)c3cc(S(=O)(=O)NC4(C)CC4)ccc3N21` [Example 33, (S)-1-ethynyl-4-((1-methyl-1H-pyrazol-4-yl)methyl)-N-(1-methylcyclopropyl)-5-oxo-1,2,4,5-tetrahydroimidazo[1,2-a]quinazoline-7-sulfonamide], the IC50 is reported as 100 to 1000 nM. `C#C[C@@H]1CN=C2N(Cc3cnn(C)c3)C(=O)c3cc(S(=O)(=O)NC4(C)CC4)ccc3N21` [Example 34, (R)-1-ethynyl-4-((1-methyl-1H-pyrazol-4-yl)methyl)-N-(1-methylcyclopropyl)-5-oxo-1,2,4,5-tetrahydroimidazo[1,2-a]quinazoline-7-sulfonamide] was tested, and the IC50 was ≤ 100 nM. For `Cn1cc(CN2C(=O)c3cc(S(=O)(=O)NC4(C)CC4)ccc3N3C2=NC[C@H]3C2CC2)cn1` [Example 35, (R)-1-cyclopropyl-4-((1-methyl-1H-pyrazol-4-yl)methyl)-N-(1-methylcyclopropyl)-5-oxo-1,2,4,5-tetrahydroimidazo[1,2-a]quinazoline-7-sulfonamide], the IC50 was ≤ 100 nM. In the case of `Cn1cc(CN2C(=O)c3cc(S(=O)(=O)NC4(C)CC4)ccc3N3C2=NC[C@@H]3C2CC2)cn1` [Example 36, (S)-1-cyclopropyl-4-((1-methyl-1H-pyrazol-4-yl)methyl)-N-(1-methylcyclopropyl)-5-oxo-1,2,4,5-tetrahydroimidazo[1,2-a]quinazoline-7-sulfonamide], the IC50 is reported as 100 to 1000 nM. For `CCN1C(=O)c2cc(S(=O)(=O)NC3(C)CC3)ccc2N2C1=NC[C@@H]2C(C)C` [Example 37, (S)-4-ethyl-1-isopropyl-N-(1-methylcyclopropyl)-5-oxo-1,2,4,5-tetrahydroimidazo[1,2-a]quinazoline-7-sulfonamide], the IC50 was > 10000 nM.
